Reference: PMC6507131, “Evaluation of the novel liver micronucleus assay using formalin-fixed tissues” (Genes and Environment, 2019)
“Also recorded” adds a separate entry of the source. Counter-ions that a name gives are not always drawn.

test system: liver; test: not given; conditions: in vivo; cited from earlier work

SMILES | Hepatocarcinogen / non-hepatocarcinogen classification | liver carcinogenicity
Oc1ccc2ccccc2c1N=Nc1ccccc1 [Sudan I, Sudan I (C.I.solvent yellow 14)] | Hepatocarcinogen | positive
CN(C)N=O [DMN, Dimethylnitrosoamine] | Hepatocarcinogen | 
O.O=P1(N(CCCl)CCCl)NCCCO1 (stereo not shown) [CP, Cyclophosphamide H2O] | Non-hepatocarcinogen | 
CN(C)c1ccc(N=Nc2ccccc2)cc1 [DAB, p-Dimethylaminoazobenzene] | Hepatocarcinogen | 
CCCN(CCC)N=O [NDPA, N-Nitrosodipropylamine] | Hepatocarcinogen | 
C[C@H]1C(=O)O[C@@H]2CCN3CC=C(COC(=O)[C@](C)(O)[C@]1(C)O)[C@H]23 [MCT, Monocrotaline] | Hepatocarcinogen | 
COS(C)(=O)=O [MMS, Methyl methanesulfonate] | Non-hepatocarcinogen | 
O=NN1CCCC1 [NPYR, N-Nitrosopyrrolidine] | Hepatocarcinogen | 
O=NN1CCOCC1 [NMOR, N-Nitrosomorpholine] | Hepatocarcinogen | 
CC(=N)S [TAA, Thioacetamide] | Hepatocarcinogen | 
CC(=O)Nc1ccc2c(c1)Cc1ccccc1-2 [2-AAF, 2-Acetylaminofluorene] | Hepatocarcinogen | 
CN(C)CCN(Cc1cccs1)c1ccccn1 [MP, Methapyrilene HCl] | Hepatocarcinogen | 
CCOC(=O)C(C)(C)Oc1ccc(Cl)cc1 [CFB, Clofibrate] | Hepatocarcinogen | 

test system: not given; test: not given; design: method as in PMID 15979392; conditions: cited from earlier work

SMILES | in vitro chromosome aberration test result
Oc1ccc2ccccc2c1N=Nc1ccccc1 [Sudan I, Sudan I (C.I.solvent yellow 14)] | negative

test system: bone marrow; test: not given; design: method as in PMID 9707102; conditions: cited from earlier work

SMILES | short-term bone marrow micronucleus assay result
Oc1ccc2ccccc2c1N=Nc1ccccc1 [Sudan I, Sudan I (C.I.solvent yellow 14)] | positive

test system: hepatocytes (liver); test: not given; conditions: rat, in vivo, po; cited from earlier work

SMILES | RDLMN test result (liver micronucleus induction), collagenase digestion method
Oc1ccc2ccccc2c1N=Nc1ccccc1 [Sudan I, Sudan I (C.I.solvent yellow 14)] | negative
c1ccc2ncccc2c1 [QUN, Quinoline] | positive
CN(C)N=O [DMN, Dimethylnitrosoamine] | positive
O.O=P1(N(CCCl)CCCl)NCCCO1 (stereo not shown) [CP, Cyclophosphamide H2O] | negative
CN(C)c1ccc(N=Nc2ccccc2)cc1 [DAB, p-Dimethylaminoazobenzene] | positive
CCCN(CCC)N=O [NDPA, N-Nitrosodipropylamine] | positive
C[C@H]1C(=O)O[C@@H]2CCN3CC=C(COC(=O)[C@](C)(O)[C@]1(C)O)[C@H]23 [MCT, Monocrotaline] | positive
COS(C)(=O)=O [MMS, Methyl methanesulfonate] | positive
O=NN1CCOCC1 [NMOR, N-Nitrosomorpholine] | positive
CC(=N)S [TAA, Thioacetamide] | negative
CC(=O)Nc1ccc2c(c1)Cc1ccccc1-2 [2-AAF, 2-Acetylaminofluorene] | positive
CC(C)[N+](=O)[O-] [2-NP, 2-Nitropropane] | positive

same assay, conditions: rat, in vivo; cited from earlier work

SMILES | Dose dependence of liver micronucleus induction, collagenase digestion method
Oc1ccc2ccccc2c1N=Nc1ccccc1 [Sudan I, Sudan I (C.I.solvent yellow 14)] | a tendency, though slight, toward a dose-dependent increase

test system: hepatocytes (liver); test: Repeated-dose liver micronucleus (RDLMN) assay, collagenase digestion method; type: in vivo, rat; conditions: comparison between the two methods

SMILES | Micronucleus induction by the collagenase digestion method compared with the formalin-fixed method
O=NN1CCCC1 [NPYR, N-Nitrosopyrrolidine] | the same trend; also recorded: higher micronucleus induction

test system: hepatocytes of formalin-fixed liver tissues; test: not given; conditions: rat, in vivo

SMILES | Frequency of MNHEPs by the formalin-fixed method compared with the collagenase digestion method
CN(C)N=O [DMN, Dimethylnitrosoamine] | Relatively higher frequencies of MNHEPs
CCCN(CCC)N=O [NDPA, N-Nitrosodipropylamine] | Relatively higher frequencies of MNHEPs
CC(=N)S [TAA, Thioacetamide] | comparable

same assay, conditions: rat, in vivo, po

SMILES | RDLMN test result (liver micronucleus induction), formalin-fixed method
Oc1ccc2ccccc2c1N=Nc1ccccc1 [Sudan I, Sudan I (C.I.solvent yellow 14)] | positive
c1ccc2ncccc2c1 [QUN, Quinoline] | positive
CN(C)N=O [DMN, Dimethylnitrosoamine] | positive
O.O=P1(N(CCCl)CCCl)NCCCO1 (stereo not shown) [CP, Cyclophosphamide H2O] | negative
CN(C)c1ccc(N=Nc2ccccc2)cc1 [DAB, p-Dimethylaminoazobenzene] | positive
CCCN(CCC)N=O [NDPA, N-Nitrosodipropylamine] | positive
C[C@H]1C(=O)O[C@@H]2CCN3CC=C(COC(=O)[C@](C)(O)[C@]1(C)O)[C@H]23 [MCT, Monocrotaline] | positive
COS(C)(=O)=O [MMS, Methyl methanesulfonate] | positive
O=NN1CCOCC1 [NMOR, N-Nitrosomorpholine] | positive
CC(=N)S [TAA, Thioacetamide] | positive
CC(=O)Nc1ccc2c(c1)Cc1ccccc1-2 [2-AAF, 2-Acetylaminofluorene] | positive
CC(C)[N+](=O)[O-] [2-NP, 2-Nitropropane] | positive

test system: liver; test: not given; design: method as in PMID 25892619, PMID 25892626; conditions: previous study; cited from earlier work

SMILES | Histopathological finding in the liver
Oc1ccc2ccccc2c1N=Nc1ccccc1 [Sudan I, Sudan I (C.I.solvent yellow 14)] | remarkable HEP hypertrophy
